Key:
ECHCG (Barnyardgrass) [1] = experiment: Postemergence herbicidal evaluation; type: in vivo, Echinochloa crus-galli; details: postemergence
Procedure, shortened: (§1)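 ~2-wk seedlings; postemergence spray, 40 psi; vehicle 1:1 acetone:water + 0.5% Tween 20; rate ≈0.0156–0.500 kg/ha; greenhouse hold; scored 4–5 wk after treatment, 0–9 scale vs control; repeat tests averaged.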

CYPIR (Rice Flatsedge) = experiment: Preemergence weed control under flooded paddy conditions; type: in vivo, Cyperus iria; details: rated 3-4 weeks after treatment
Procedure, shortened: (§2)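 Herbicidal effect is scored visually on a 0-9 scale against an untreated control, three to four weeks after compounds are pipetted into the flood water (1.5 to 3 cm deep) over seeds planted in silt loam at 0.5 cm depth. Rates: about 0.0313 to 0.500 kg/ha.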

[2] = test system: GLXMAW (Soybean, Williams); experiment: Preemergence herbicidal evaluation; type: in vivo, Glycine max, (L.) Merr. cv Williams; details: rated 4-5 weeks after treatment
Procedure, shortened: (§3)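 Herbicidal effect scored visually, 0-9, at 4 to 5 weeks against a control; compound applied preemergence by aqueous acetone spray to seeded soil at about 0.0156 to 0.500 kg/ha.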

ZEAMX (Corn, Field) [3] = experiment: Preemergence herbicidal evaluation; type: in vivo, Zea mays; details: rated 4-5 weeks after treatment
Procedure, shortened: as §3

[4] = test system: IPOHE (Morningglory, Ivyleaf); experiment: Preemergence herbicidal evaluation; type: in vivo, Ipomoea hederacea; details: rated 4-5 weeks after treatment
Procedure, shortened: as §3

ECHCG (Barnyardgrass) [5] = experiment: Preemergence herbicidal evaluation; type: in vivo, Echinochloa crus-galli; details: rated 4-5 weeks after treatment
Procedure, shortened: as §3

CASOB (Sicklepod) [6] = experiment: Preemergence herbicidal evaluation; type: in vivo, Cassia obtusifolia; details: rated 4-5 weeks after treatment
Procedure, shortened: as §3

CASOB (Sicklepod) [7] = experiment: Postemergence herbicidal evaluation; type: in vivo, Cassia obtusifolia; details: postemergence
Procedure, shortened: as §1

ZEAMX (Corn, Field) [8] = experiment: Postemergence herbicidal evaluation; type: in vivo, Zea mays; details: postemergence
Procedure, shortened: as §1

GALAP (Galium) = experiment: Preemergence herbicidal evaluation; type: in vivo, Galium aparine; details: rated 4-5 weeks after treatment
Procedure, shortened: as §3

[9] = test system: IPOHE (Morningglory, Ivyleaf); experiment: Postemergence herbicidal evaluation; type: in vivo, Ipomoea hederacea; details: postemergence
Procedure, shortened: as §1

ABUTH (Velvetleaf) = experiment: Preemergence herbicidal evaluation; type: in vivo, Abutilon theophrasti; details: rated 4-5 weeks after treatment
Procedure, shortened: as §3

[10] = test system: TRZAWR (Wheat, Winter, cv Riband); experiment: Preemergence herbicidal evaluation; type: in vivo, Triticum aestivum; details: rated 4-5 weeks after treatment
Procedure, shortened: as §3

[11] = test system: ECHORC (Watergrass (Calif.)); experiment: Preemergence weed control under flooded paddy conditions; type: in vivo, Echinochloa oryzoides; details: rated 3-4 weeks after treatment
Procedure, shortened: as §2

SETVI (Foxtail, Green) = experiment: Preemergence herbicidal evaluation; type: in vivo, Setaria viridis; details: rated 4-5 weeks after treatment
Procedure, shortened: as §3

MOOVA (Monochoria) = experiment: Preemergence weed control under flooded paddy conditions; type: in vivo, Monochoria vaginalis; details: rated 3-4 weeks after treatment
Procedure, shortened: (§4)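 Seeds or propagules sown in silt loam kept flooded 1.5-3 cm; compounds in 50/50 acetone/water pipetted into flood water at about 0.0313 to 0.500 kg/ha. Greenhouse; visual 0-9 rating versus untreated control 3-4 weeks after treatment.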

CYPSE (Flatsedge) = experiment: as above; type: in vivo, Cyperus serotinus; details: rated 3-4 weeks after treatment
Procedure, shortened: as §4

For CCOC(=O)CN1C(=O)C(Cc2ccccc2OC(C)C(=O)O)S/C1=N/c1cc(-n2c(=O)cc(C(F)(F)F)n(C)c2=O)c(F)cc1Cl (stereo not shown) [Compound 114, 5-[o-(1-Carboxyethoxy)benzyl]-2-{{2-chloro-5-[3,6-dihydro-3-methyl-2,6-dioxo-4-(trifluoromethyl)-1(2H)-pyrimidinyl]-4-fluorophenyl}imino}-4-oxo-3-thiazolidineacetic acid, 3-ethyl ester], the “herbicidal rating ECHCG” value (ECHCG (Barnyardgrass) [1]; rate 0.0158 kg/ha) was 0.0, the “herbicidal rating ECHCG” value (ECHCG (Barnyardgrass) [1]; rate 0.0315 kg/ha) was 1.0 and the “herbicidal rating ECHCG” value (ECHCG (Barnyardgrass) [1]; rate 0.0630 kg/ha) was 4.0. The “CYPIR herbicidal effect rating” value (CYPIR (Rice Flatsedge); 0.0313 kg/ha) was 4.5, the “CYPIR herbicidal effect rating” value (CYPIR (Rice Flatsedge); 0.0625 kg/ha) was 6.5 and the “CYPIR herbicidal effect rating” value (CYPIR (Rice Flatsedge); 0.1250 kg/ha) was 8.5. The “CYPIR herbicidal effect rating” value (CYPIR (Rice Flatsedge); 0.2500 kg/ha) was 9.0, the “Preemergence herbicidal rating GLXMAW” value ([2]; rate 0.0156 kg/ha) was 0.0 and the “Preemergence herbicidal rating GLXMAW” value ([2]; rate 0.0313 kg/ha) was 1.0. For the same molecule, the “Preemergence herbicidal rating GLXMAW” value ([2]; rate 0.0625 kg/ha) was 0.0, the “Preemergence herbicidal rating GLXMAW” value ([2]; rate 0.1250 kg/ha) was 2.0 and the “Preemergence herbicidal rating GLXMAW” value ([2]; rate 0.2500 kg/ha) was 3.0. For the same molecule, the “Preemergence herbicidal rating ZEAMX” value (ZEAMX (Corn, Field) [3]; rate 0.0156 kg/ha) was 0.0, the “Preemergence herbicidal rating ZEAMX” value (ZEAMX (Corn, Field) [3]; rate 0.0313 kg/ha) was 1.0 and the “Preemergence herbicidal rating ZEAMX” value (ZEAMX (Corn, Field) [3]; rate 0.0625 kg/ha) was 1.0. For the same molecule, the “Preemergence herbicidal rating ZEAMX” value (ZEAMX (Corn, Field) [3]; rate 0.1250 kg/ha) was 1.0, the “Preemergence herbicidal rating ZEAMX” value (ZEAMX (Corn, Field) [3]; rate 0.2500 kg/ha) was 2.0 and the “Preemergence herbicidal rating IPOHE” value ([4]; rate 0.0156 kg/ha) was 0.0. The “Preemergence herbicidal rating IPOHE” value ([4]; rate 0.0313 kg/ha) was 0.0, the “Preemergence herbicidal rating IPOHE” value ([4]; rate 0.0625 kg/ha) was 0.0 and the “Preemergence herbicidal rating IPOHE” value ([4]; rate 0.1250 kg/ha) was 9.0. For the same molecule, the “Preemergence herbicidal rating IPOHE” value ([4]; rate 0.2500 kg/ha) was 7.0, the “Preemergence herbicidal rating ECHCG” value (ECHCG (Barnyardgrass) [5]; rate 0.0156 kg/ha) was 0.0 and the “Preemergence herbicidal rating ECHCG” value (ECHCG (Barnyardgrass) [5]; rate 0.0313 kg/ha) was 0.0. For the same molecule, the “Preemergence herbicidal rating ECHCG” value (ECHCG (Barnyardgrass) [5]; rate 0.0625 kg/ha) was 0.0, the “Preemergence herbicidal rating ECHCG” value (ECHCG (Barnyardgrass) [5]; rate 0.1250 kg/ha) was 2.0 and the “Preemergence herbicidal rating ECHCG” value (ECHCG (Barnyardgrass) [5]; rate 0.2500 kg/ha) was 4.0. The “Preemergence herbicidal rating CASOB” value (CASOB (Sicklepod) [6]; rate 0.0156 kg/ha) was 0.0, the “Preemergence herbicidal rating CASOB” value (CASOB (Sicklepod) [6]; rate 0.0313 kg/ha) was 0.0 and the “Preemergence herbicidal rating CASOB” value (CASOB (Sicklepod) [6]; rate 0.0625 kg/ha) was 1.0. The “Preemergence herbicidal rating CASOB” value (CASOB (Sicklepod) [6]; rate 0.1250 kg/ha) was 3.0, the “Preemergence herbicidal rating CASOB” value (CASOB (Sicklepod) [6]; rate 0.2500 kg/ha) was 9.0 and the “herbicidal rating CASOB” value (CASOB (Sicklepod) [7]; rate 0.0158 kg/ha) was 1.0. For the same molecule, the “herbicidal rating CASOB” value (CASOB (Sicklepod) [7]; rate 0.0315 kg/ha) was 1.0, the “herbicidal rating CASOB” value (CASOB (Sicklepod) [7]; rate 0.0630 kg/ha) was 1.0 and the “herbicidal rating ZEAMX” value (ZEAMX (Corn, Field) [8]; rate 0.0158 kg/ha) was 6.5. For the same molecule, the “herbicidal rating ZEAMX” value (ZEAMX (Corn, Field) [8]; rate 0.0315 kg/ha) was 7.0, the “herbicidal rating ZEAMX” value (ZEAMX (Corn, Field) [8]; rate 0.0630 kg/ha) was 7.0 and the “Preemergence herbicidal rating GALAP” value (GALAP (Galium); rate 0.0156 kg/ha) was 0.0. The “Preemergence herbicidal rating GALAP” value (GALAP (Galium); rate 0.0313 kg/ha) was 0.0, the “Preemergence herbicidal rating GALAP” value (GALAP (Galium); rate 0.0625 kg/ha) was 3.0 and the “Preemergence herbicidal rating GALAP” value (GALAP (Galium); rate 0.1250 kg/ha) was 7.0. For the same molecule, the “Preemergence herbicidal rating GALAP” value (GALAP (Galium); rate 0.2500 kg/ha) was 9.0, the “herbicidal rating IPOHE” value ([9]; rate 0.0158 kg/ha) was 9.0 and the “herbicidal rating IPOHE” value ([9]; rate 0.0315 kg/ha) was 9.0. For the same molecule, the “herbicidal rating IPOHE” value ([9]; rate 0.0630 kg/ha) was 9.0, the “Preemergence herbicidal rating ABUTH” value (ABUTH (Velvetleaf); rate 0.0156 kg/ha) was 0.0 and the “Preemergence herbicidal rating ABUTH” value (ABUTH (Velvetleaf); rate 0.0313 kg/ha) was 1.0. The “Preemergence herbicidal rating ABUTH” value (ABUTH (Velvetleaf); rate 0.0625 kg/ha) was 6.0, the “Preemergence herbicidal rating ABUTH” value (ABUTH (Velvetleaf); rate 0.1250 kg/ha) was 9.0 and the “Preemergence herbicidal rating ABUTH” value (ABUTH (Velvetleaf); rate 0.2500 kg/ha) was 9.0. For the same molecule, the “Preemergence herbicidal rating TRZAWR” value ([10]; rate 0.0156 kg/ha) was 0.0, the “Preemergence herbicidal rating TRZAWR” value ([10]; rate 0.0313 kg/ha) was 0.0 and the “Preemergence herbicidal rating TRZAWR” value ([10]; rate 0.0625 kg/ha) was 0.0. For the same molecule, the “Preemergence herbicidal rating TRZAWR” value ([10]; rate 0.1250 kg/ha) was 1.0, the “Preemergence herbicidal rating TRZAWR” value ([10]; rate 0.2500 kg/ha) was 3.0 and the “ECHORC herbicidal effect rating” value ([11]; 0.0313 kg/ha) was 6.0. The “ECHORC herbicidal effect rating” value ([11]; 0.0625 kg/ha) was 7.0, the “ECHORC herbicidal effect rating” value ([11]; 0.1250 kg/ha) was 7.0 and the “ECHORC herbicidal effect rating” value ([11]; 0.2500 kg/ha) was 8.0. The “Preemergence herbicidal rating SETVI” value (SETVI (Foxtail, Green); rate 0.0156 kg/ha) was 0.0, the “Preemergence herbicidal rating SETVI” value (SETVI (Foxtail, Green); rate 0.0313 kg/ha) was 0.0 and the “Preemergence herbicidal rating SETVI” value (SETVI (Foxtail, Green); rate 0.0625 kg/ha) was 2.0. The “Preemergence herbicidal rating SETVI” value (SETVI (Foxtail, Green); rate 0.1250 kg/ha) was 7.0, the “Preemergence herbicidal rating SETVI” value (SETVI (Foxtail, Green); rate 0.2500 kg/ha) was 9.0 and the “MOOVA herbicidal effect rating” value (MOOVA (Monochoria); 0.0313 kg/ha) was 9.0. The “MOOVA herbicidal effect rating” value (MOOVA (Monochoria); 0.0625 kg/ha) was 9.0, the “MOOVA herbicidal effect rating” value (MOOVA (Monochoria); 0.1250 kg/ha) was 9.0 and the “MOOVA herbicidal effect rating” value (MOOVA (Monochoria); 0.2500 kg/ha) was 9.0. The “CYPSE herbicidal effect rating” value (CYPSE (Flatsedge); 0.0313 kg/ha) was 3.5, the “CYPSE herbicidal effect rating” value (CYPSE (Flatsedge); 0.0625 kg/ha) was 4.5 and the “CYPSE herbicidal effect rating” value (CYPSE (Flatsedge); 0.1250 kg/ha) was 3.5. The “CYPSE herbicidal effect rating” value (CYPSE (Flatsedge); 0.2500 kg/ha) was 4.5.

Reference: patent US20020137929A1, “1 - (3-heterocyclylphenyl) isothiourea, -isourea, -guanidine and -amidine herbicidal agents” (Intellectual Property Department, BASF Aktiengesellschaft, priority 1998, published 2002)
